Laboratory results reported in patent US20260001864A1, “COMPOUND CONTAINING SULFAMIDE STRUCTURE, AND PREPARATION METHOD THEREFOR AND APPLICATION THEREOF, AND PHARMACEUTICAL COMPOSITION AND APPLICATION” (Nanjing Shuohui Pharmatechnology Co., Ltd, priority 2021, published 2026).
pIC50: −log10 of the molar value. Like-named read-outs stand apart in the source and are kept apart here.

Legend:
[1] = target: H+/K+-ATPase (rabbit gastric mucosal microsomes) (Oryctolagus cuniculus (Rabbit), UniProt P27112); test: In vitro screening test of H+/K+-ATPase inhibition (malachite green); type: biochemical; details: pH 6.5, 37° C. 30 min, read-out: IC50, inhibitory effect on H+/K+-ATPase activity
Text: This test example evaluates the inhibitory effects of the compounds of the present invention on the activity of H+/K+-ATPase by an in vitro screening test, and expresses them with the IC50 values of the compounds (obtained by calculating the inhibition rates at different concentrations).
• Compound solutions: The products (i.e., the compounds or the hydrochloride salt of compounds) obtained in the foregoing preparation examples of the present invention were each independently dissolved in DMSO to form solutions at suitable concentrations; • Buffer I: 50 mmol/L HEPEs-Tris, pH=6.5, 5 mmol/L magnesium chloride, […] valinomycin (J&K Scientific Ltd., goods No.: 227304); • Buffer II: 50 mmol/L HEPEs-Tris, pH=6.5, 5 mmol/L magnesium chloride, […] valinomycin, 5 mmol/L potassium chloride; • 5-adenosine triphosphate (ATP, Sigma-Aldrich, goods No.: A2383) solution: Dilute ATP with buffer I to 5 mM; • Malachite green solution: Dissolve 0.12 wt % malachite green (J&K Scientific Ltd., goods No.: 913120) in 2.5 mol/L sulfuric acid, 7.5 wt % ammonium molybdate (J&K Scientific Ltd., goods No.: 128321) and 11% Tween 20(V/V). During use, sulfuric acid, ammonium molybdate and Tween 20 are mixed in a ratio of 100:25:2; • Rabbit gastric mucosal microsomes (rich in H+/K+-ATPase, self-extracted), extracted by sucrose gradient centrifugation: The rabbit stomach was washed with tap water and 3M NaCl solution, respectively, and then the surface water was removed with filter paper. A pre-cooled homogenization buffer (4 ml/g tissue) was added and homogenized for 2-5 min in a tissue homogenizer. After the homogenizing, if there are large tissue particles, they can be removed by centrifugation (600 g, 10 min). The supernatant was then transferred to a clean centrifuge tube and centrifuged at 20,000 g for 30 min, then the supernatant was transferred to a clean centrifuge tube and further centrifuged at 100,000 g for 90 min and the precipitate was collected; the precipitate was suspended in homogenate and blown evenly, and the protein concentration was measured by the Bradford's method and adjusted to 10 mg/ml; 7.5 wt % Ficoll's layering solution was added in equal proportions. After centrifugation at 100,000 g for 60 min, the middle layer (H^+/K^+-ATPase-enriched gastric membranes) was collected in a clean centrifuge tube, diluted with homogenate by 4-5 times, and then centrifuged at 100,000 g for another 90 min, and the precipitate was collected; the precipitate was suspended in homogenate and homogenized in a glass homogenizer, and the protein concentration was measured by the Bradford's method and adjusted to 22.5 mg/ml. It was frozen at −80° C. and stored for future use.
5 μL of rabbit gastric mucosal microsomes (H^+/K^+-ATPase) was added to 45 μL of buffer II, then 5 μL of compound solution was added, and then 5 μL of 5 mM ATP solution was added to start the reaction and pre-react at 37° C. for 30 min. 15 μL of malachite green solution was added to terminate the reaction, balancing was conducted at room temperature for 20 min, and read the optical absorbance at 620 nm.
Meanwhile, the reaction of the same volume was carried out without addition of potassium chloride as a background, which was subtracted when calculating enzymatic activity.

[2] = tested on: histamine-induced gastric acid secretion; test: Inhibition of histamine-induced gastric acid secretion in rats (pylorus ligation); type: in vivo, rat; details: SD rats, total acid over 3 h after histamine
Procedure: 70 SPF-level SD rats with a weight of 180-220 g (Hangzhou Medical College (produced)), randomly grouped by weight, including negative control groups (isovolumetric saline) and model control groups (isovolumetric saline), and compounds obtained in the foregoing preparation examples of the present invention (i.e., compounds or compound hydrochlorides) (2 mg/kg or 4 mg/kg), 10 rats each group, including 5 males and 5 females. The rats were fasted, but were allowed to drink water for 24 h. After 24 h, the rats were given the compound at 1 ml/100 g by gavage, once in each group, and the rats in the negative control groups and the model groups were given an equal volume of saline by gavage. After that, the rats were anesthetized with chloral hydrate 300 mg/kg (1 ml/100 g) and fixed on a rat plate, and the abdominal wall was incised along the abdominal midline from the subxiphoid process of the sternum, and the incision was approximately 2-3 cm and was made on the left costal margin, and the stomach was exposed to the incision by gently pushing it with the fingers upwards. The pylorus was ligated with a thread under the pylorus (other neighboring vessels were not ligated), and the abdominal wall incision was sutured. The animals were given histamine dihydrochloride (30 mg/10 ml/kg) subcutaneously after 1 h of gavage of the test compound or saline. After 3 h of histamine administration, the rats were asphyxiated with excess CO2, stomachs were removed, stomach contents were collected and centrifuged at 3000 rpm/min for 10 min, and the acid solution was titrated with 0.1 mol/L NaOH to pH7.0. The total acidity and acid inhibition rate during the 3 h period were calculated.
Acid inhibition rate (%)=(Total acid in the model group−total acid in the test group)/total acid in the model group×100%

[3] = Rat tissue distribution test (oral, LC-MS-MS); type: in vivo; parameters: Hepatic drug concentration: unit not given here; details: for Exposure level (0-4 h): male SD rats; for Exposure level (0-4 h) / Hepatic drug concentration: oral 4 mg/kg; for Kp: male, SD, plasma set to 1, oral 4 mg/kg, read-out: Ratio of exposure level; for Kp / Hepatic drug concentration: rat
Procedure: Three healthy male SD rats (body weight range 220-250 g, Zhejiang Charles River) were taken and assigned into one group (n=3). Compound 48, Compound A9 or comparison compound Vonoprazan were administered orally at a dose of 4 mg/kg.
Solvent for preparing pharmaceutical preparations: Pure water. The rats were fasted 4 h prior to the administration. […] The tissue was homogenized, and the corresponding blank tissue was used for preparation of a calibration curve and QC quantification. Blood samples should be centrifuged to extract plasma within 1 hour of collection and kept on crushed ice prior to the centrifugation. Plasma samples obtained by centrifugation were stored in a freezer until analysis. Centrifugation conditions: 4-10° C., 8000 rpm, 6 min. The concentration of the sample was determined by LC-MS-MS (MS03: Shimadzu LC30AD and API 4000)), and the exposure data were calculated by WINNOLIN software.

Sequence of H+/K+-ATPase (rabbit gastric mucosal microsomes) (P27112 whole entry): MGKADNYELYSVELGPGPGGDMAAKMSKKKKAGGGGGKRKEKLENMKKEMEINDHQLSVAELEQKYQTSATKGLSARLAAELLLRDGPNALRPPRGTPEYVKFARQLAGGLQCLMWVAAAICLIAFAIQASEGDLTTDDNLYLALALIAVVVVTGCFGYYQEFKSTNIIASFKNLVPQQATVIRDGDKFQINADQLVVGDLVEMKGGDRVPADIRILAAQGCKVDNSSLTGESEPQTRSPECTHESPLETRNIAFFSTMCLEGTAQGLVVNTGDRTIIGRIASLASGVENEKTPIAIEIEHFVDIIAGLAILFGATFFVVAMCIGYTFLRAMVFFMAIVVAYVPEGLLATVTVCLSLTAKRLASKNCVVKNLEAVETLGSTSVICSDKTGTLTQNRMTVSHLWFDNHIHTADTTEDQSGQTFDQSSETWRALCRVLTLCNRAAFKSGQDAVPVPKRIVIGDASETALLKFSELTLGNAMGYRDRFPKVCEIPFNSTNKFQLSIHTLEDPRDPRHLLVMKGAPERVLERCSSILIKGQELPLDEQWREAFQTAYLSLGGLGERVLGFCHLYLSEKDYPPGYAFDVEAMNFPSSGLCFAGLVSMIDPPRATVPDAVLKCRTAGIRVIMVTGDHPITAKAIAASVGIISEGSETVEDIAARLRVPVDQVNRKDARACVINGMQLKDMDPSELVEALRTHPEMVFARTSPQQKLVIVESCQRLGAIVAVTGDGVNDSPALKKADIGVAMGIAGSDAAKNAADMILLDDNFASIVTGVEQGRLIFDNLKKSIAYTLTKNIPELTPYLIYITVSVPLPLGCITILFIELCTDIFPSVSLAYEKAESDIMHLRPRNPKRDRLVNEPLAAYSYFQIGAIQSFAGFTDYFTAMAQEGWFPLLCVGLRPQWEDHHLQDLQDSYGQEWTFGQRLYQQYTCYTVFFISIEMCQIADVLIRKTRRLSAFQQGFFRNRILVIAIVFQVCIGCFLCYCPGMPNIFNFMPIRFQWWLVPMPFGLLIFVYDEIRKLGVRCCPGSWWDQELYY
Sequence of H+/K+-ATPase (rabbit gastric mucosal microsomes) (P18597 whole entry partner): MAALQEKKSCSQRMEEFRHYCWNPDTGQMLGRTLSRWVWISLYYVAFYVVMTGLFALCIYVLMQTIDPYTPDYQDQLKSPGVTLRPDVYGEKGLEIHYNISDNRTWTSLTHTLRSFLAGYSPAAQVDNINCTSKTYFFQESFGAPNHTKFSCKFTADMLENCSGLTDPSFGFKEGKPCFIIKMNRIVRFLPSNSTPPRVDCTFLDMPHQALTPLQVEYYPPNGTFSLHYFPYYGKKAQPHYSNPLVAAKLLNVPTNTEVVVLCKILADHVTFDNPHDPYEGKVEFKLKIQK

Compound	pIC50 [1]	Acid inhibition rate ([2]; 2 mg/kg by gavage)	further results
CNCc1cc(-c2ccc(OCC3CCOCC3)cc2F)n(S(=O)(=O)c2cccnc2)c1 [Compound 6]	6.83	48%	–
CNCc1cc(-c2ccc(OC(C)C3CCOCC3)cc2F)n(S(=O)(=O)c2cccnc2)c1 (stereo not drawn) [Compound 8]	7.14	71%	–
CNCc1cc(-c2ccc(OCC3CCOCC3)cc2F)n(S(=O)(=O)c2cccc(C#N)c2)c1 [Compound 28]	7.51	71%	–
CNCc1cc(-c2ccc(OC(C)C3CCOCC3)cc2F)n(S(=O)(=O)c2cccc(OCCCOC)c2)c1 (stereo not drawn) [Compound 37]	6.80	56%	–
CNCc1cn(S(=O)(=O)c2cccnc2)c(-c2ccc(OCC3CC3)cc2F)c1OC [Compound 48, 1-(5-(4-(cyclopropylmethoxy)-2-fluorophenyl)-4-methoxy-1-(pyridin-3-ylsulfonyl)-1H-pyrrolo-3-yl)-N-methylmethylamine]	7.44	75%	Exposure level (0-4 h) ([3]; liver): 7585.5 ng·h/mL; Kp ([3]; liver): 88.4; Kp ([3]; plasma): 1; Kp ([3]; stomach): 171; Exposure level (0-4 h) ([3]; plasma): 85.8 ng·h/mL; Exposure level (0-4 h) ([3]; stomach): 14693.7 ng·h/mL; Acid inhibition rate ([2]; 4 mg/kg by gavage): 86%
CNCc1cc(-c2ccc(OC(C)c3c(F)cccc3F)cc2F)n(S(=O)(=O)c2cccnc2)c1 (stereo not drawn) [Compound 67]	7.39	64%	–
CNCc1cc(-c2ccc(OC(C)c3cc(F)cc(F)c3)cc2F)n(S(=O)(=O)c2cccc(OCCCCOC)c2)c1 (stereo not drawn) [Compound 92]	5.72	–	–
CNCc1cc(-c2ccc(OCc3cccc4c3OCO4)cc2F)n(S(=O)(=O)c2cccc(OCCCCOC)c2)c1 [Compound 93]	4.91	–	–
CNCc1cc(-c2ccc(OCc3cccc4c3OCO4)cc2F)n(S(=O)(=O)c2cccnc2)c1 [Compound 94]	7.32	–	–
CNCc1cc(-c2ccc(OCc3cccc4c3OCO4)cc2F)n(S(=O)(=O)c2cccc(C#N)c2)c1 [Compound 95]	8.02	–	–
CNCc1cc(-c2ccc(OCc3cccc4c3OCCO4)cc2F)n(S(=O)(=O)c2cccnc2)c1 [Compound 96]	7.29	–	–
CNCc1cc(-c2ccc(OCc3cccc4c3OCCO4)cc2F)n(S(=O)(=O)c2cccc(C#N)c2)c1 [Compound 97]	7.92	–	–
CNCc1cc(-c2ccc(OCc3cc(F)ccc3F)cc2F)n(S(=O)(=O)c2cccc(C(F)(F)F)c2)c1 [Compound 98]	6.31	–	–
CNCc1cc(-c2ccc(OCCc3cc(F)cc(F)c3)cc2F)n(S(=O)(=O)c2cccnc2)c1 [Compound 99]	7.14	–	–
CNCc1cc(-c2ccc(OCc3ccoc3)cc2F)n(S(=O)(=O)c2cccnc2)c1 [Compound 100]	6.99	–	–
CNCc1cc(-c2ccc(OCc3cccnc3F)cc2F)n(S(=O)(=O)c2cccnc2)c1 [Compound A1]	7.18	68%	–
CNCc1cc(-c2ccc(OCc3cccnc3C)cc2F)n(S(=O)(=O)c2cccnc2)c1 [Compound A2]	6.81	–	–
CNCc1cc(-c2ccc(OCc3cnn(C)c3)cc2F)n(S(=O)(=O)c2cccnc2)c1 [Compound A3]	7.29	65%	–
CNCc1cc(-c2ccc(OCc3ccc(OC)nc3)cc2F)n(S(=O)(=O)c2cccnc2)c1 [Compound A4]	–	60%	–
CNCc1cc(-c2ccc(OCc3ncccc3F)cc2F)n(S(=O)(=O)c2cccnc2)c1 [Compound A6]	6.80	–	–
CNCc1cc(-c2ccc(OCc3cccnn3)cc2F)n(S(=O)(=O)c2cccnc2)c1 [Compound A7]	–	53%	–
CNCc1cc(-c2ccc(OCc3ccn(C)n3)cc2F)n(S(=O)(=O)c2cccnc2)c1 [Compound A8]	7.73	58%	–
CNCc1cc(-c2ccc(OCC3CC3(F)F)cc2F)n(S(=O)(=O)c2cccnc2)c1 (stereo not drawn) [Compound A10]	7.56	81%	Acid inhibition rate ([2]; 4 mg/kg by gavage): 87%
CNCc1cc(-c2ccc(OCC3CO3)cc2F)n(S(=O)(=O)c2cccnc2)c1 (stereo not drawn) [Compound A11]	7.85	81%	–
CNCc1cc(-c2ccc(OCC3COC3)cc2F)n(S(=O)(=O)c2cccnc2)c1 [Compound A12]	6.93	63%	–
CNCc1cc(-c2ccc(OCC3CCOC3)cc2F)n(S(=O)(=O)c2cccnc2)c1 (stereo not drawn) [Compound A13]	6.89	60%	–
CNCc1cc(-c2ccc(OCC3CCCO3)cc2F)n(S(=O)(=O)c2cccnc2)c1 (stereo not drawn) [Compound A14]	–	63%	–
CNCc1cc(-c2ccc(OCC3CCO3)cc2F)n(S(=O)(=O)c2cccnc2)c1 (stereo not drawn) [Compound A15]	–	64%	–
CNCc1cc(-c2ccccc2F)n(S(=O)(=O)c2cccnc2)c1 [Vonoprazan, reference compound]	–	–	Hepatic drug concentration ([3]; liver, 15 min): 9919; Hepatic drug concentration ([3]; liver, 1 h): 1192; Hepatic drug concentration ([3]; liver, 2 h): 632; Hepatic drug concentration ([3]; liver, 4 h): 162; Hepatic drug concentration ([3]; liver, 24 h): 23.7
